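Test compounds were applied to cells in 96-well plates for 48 hours at 5 doses. GI50 marks 50% less growth. The concentration for full growth arrest is given as TGI.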
Tests used:
Test in all cases: NCI anticancer screen, dose series, 48 h
HS 578T breast = tested on: HS 578T breast
A498 renal = tested on: A498 renal
MDA-MB-231 breast = tested on: MDA-MB-231 breast
SR leukemia = tested on: SR leukemia
SK-MEL-28 melanoma = tested on: SK-MEL-28 melanoma
KM12 colon = tested on: KM12 colon
MCF7 breast = tested on: MCF7 breast
HT29 colon = tested on: HT29 colon
T-47D breast = tested on: T-47D breast
RXF 393 renal = tested on: RXF 393 renal

SMILES | GI50 (HS 578T breast) [µM] | TGI (HS 578T breast) [µM] | GI50 (A498 renal) [µM] | TGI (A498 renal) [µM] | GI50 (MDA-MB-231 breast) [µM] | TGI (MDA-MB-231 breast) [µM] | TGI (SR leukemia) [µM] | TGI (SK-MEL-28 melanoma) [µM] | TGI (KM12 colon) [µM] | GI50 (MCF7 breast) [µM] | TGI (MCF7 breast) [µM] | TGI (HT29 colon) [µM] | GI50 (T-47D breast) [µM] | TGI (T-47D breast) [µM] | TGI (RXF 393 renal) [µM] | GI50 (SR leukemia) [µM] | GI50 (SK-MEL-28 melanoma) [µM] | GI50 (KM12 colon) [µM] | GI50 (HT29 colon) [µM] | GI50 (RXF 393 renal) [µM]
CC(=O)OC12C=CC(=O)N1c1ccccc1C(=O)O2 (stereo not given) | > 100 | > 100 | > 100 | > 100 | > 100 | > 100 | > 100 | > 100 | > 100 | > 100 | > 100 | > 100 | > 100 | > 100 | > 100 |  |  |  |  | 
Nc1c(C(=O)Nc2ccncc2)sc2nc3c(cc12)CCCCCCCC3 | 1.08 | 2.54 | 0.871 | 1.58 | 0.899 | 1.66 | 50 | 1.65 | 1.62 | 0.886 | 1.75 | 1.79 | 0.94 | 2.21 | 1.7 | 1.62 | 0.916 | 0.877 | 0.969 | 0.938
CC[C@H]1[C@@H]2C=C[C@@H]3[C@H]4C/C=C\C(=O)NCCC[C@@H]5NC(=O)/C(=C(O)/C=C/[C@@H]4C[C@@H]3[C@H]2C[C@H]1C)C5=O | 1.44 | 3.81 | 1.67 | 3.08 | 1.3 | 2.66 | 1.94 | 4.06 | 9.88 | 1.75 | 3.88 | 3.31 | 1.7 | 4.1 | 0.84 | 0.264 | 1.89 | 3.03 | 1.73 | 0.236
CCCN1C(=O)N(CCC)C2C1NC(=S)N2/N=C/C=C/c1ccccc1OC (stereo not given) | 0.478 | > 100 | 0.203 | 1 | 2.16 | 22.5 | > 35.1 | > 100 | > 100 | 0.39 | > 100 | 17.8 | 0.376 | 37 | 85.9 | 0.326 | 6.26 | 0.422 | 0.386 | 0.484
C#C[C@]1(O)CCC2C3CCc4cc(O)ccc4C3CC[C@@]21C (stereo not given in full) | 3.08 | 17.7 | 4.62 | 18.3 | 7.58 | 47.2 | 87.4 | 19.7 | 13.9 | 9.51 | 25.2 | 18.6 | 6.91 | 24.4 | 17.7 | 1.24 | 5.85 | 3.14 | 3.65 | 4.66
Nc1nc(/C=C\c2ccc([N+](=O)[O-])s2)nc(N2CCCC2)n1 | 12.9 | 59.7 | 16.6 | 34.6 | 1.56 | 9.35 | 6.49 | 23.6 | 6.51 | 3.16 | 16.1 | 14.8 | 1.68 | 14.1 | 21.1 | 1.62 | 9.33 | 1.22 | 2.97 | 3.99
O=C1C=CC(=O)c2cc3cc(CBr)ccc3cc21 | 28.7 | > 93.2 | 17.5 | 34.4 | 1.95 | 8.09 | 0.0923 | > 63.1 | 38.4 | 9.73 | > 100 | > 100 | 2.12 | > 26.2 | 27.9 | 0.0371 | 7.31 | 17.5 | 2.62 | 11
C=CCCCCOc1ccccc1-c1cnc(OCCCCC=C)n1C | 4.13 | 23.7 | 2.1 | 10.2 | 5.19 | 20.3 | 13.7 | 31.6 | 13.1 | 2.89 | 11.6 | 10.2 | 3.53 | 29.5 | 18.2 | 4.3 | 4.51 | 3.3 | 3.22 | 5.23
COc1cc2c(c(OC)c1OC)-c1ccc(SC)c(=O)cc1C(NC=O)CC2 (stereo not given) |  | > 75.5 |  | 1.76 |  | > 4.64 | 36.6 | > 100 | < 0.0138 |  | 42 | 1.1 |  | > 100 | > 67.9 |  |  |  |  | 
